Laboratory results published in PMC11954145, “Antimicrobial and ADME properties of methoxylated, methylated and nitrated 2-hydroxynaphthalene-1 carboxanilides” (ADMET & DMPK, 2025).
Converted amounts (≈) assume the structure as drawn. Like-named read-outs stand apart in the source and are kept apart here.

Columns and labels:
[1] = Lipophilicity determination by RP-HPLC (log k, log D); type: physicochemical; settings: for log D6.5: RP-HPLC C18, MeOH 72 % / acetate-buffered saline pH 6.5; for log D7.4: RP-HPLC C18, MeOH 72 % / acetate-buffered saline pH 7.4; for log k (logarithm of the capacity factor): RP-HPLC C18, MeOH 72 % / water 28 %
Excerpt: An HPLC system Agilent 1200 equipped with a DAD detector (Agilent, Santa Clara, CA, USA) was used. A chromatographic column Symmetry® C18 5 μm, 4.6×250 mm, part No. WAT054275 (Waters Corp., Milford, MA, USA) was used. The HPLC separation process was monitored and evaluated with EZChrom Elite software ver. 3.3.2 (Agilent). Isocratic elution by a mixture of MeOH p.a. (72 %) and H2O-HPLC Mili-Q grade (28 %) as a mobile phase was used for the determination of capacity factor k. Isocratic elution by a mixture of MeOH p.a. (72 %) and acetate-buffered saline (pH 7.4 and pH 6.5) (28 %) as a mobile phase was used for the determination of distribution coefficients expressed as D7.4 and D6.5. The total flow of the column was 1.0 mL min^-1, the injection volume was 20 μL, the column temperature was 40 °C, and the sample temperature was 10 °C. The detection wavelength of 210 nm was chosen. A KI methanolic solution was used to determine the dead times (tD). Retention times (tR) were measured in minutes. The capacity factors k were calculated according to the formula k = (tR–tD)/tD, where tR is the retention time of the solute, and tD is the dead time obtained using an unretained analyte. The distribution coefficients DpH were calculated according to the formula DpH = (tR–tD)/tD. Each experiment was repeated three times.
The capacity factor and distribution coefficients were measured by RP-HPLC on a C18 column with methanol as an organic modifier of the mobile phase. In addition to the experimental lipophilicities, predicted log P values were also calculated using ACD/Percepta, see Table 1. […] The values of σ(Ar) are found in a wide range from 0.01 to 1.36, so the compounds contain substituents with both electron-donating and slightly electron-withdrawing properties.

[2] = tested on: S. aureus ATCC 29213; assay: Antibacterial screening, broth microdilution MIC; type: cell-based; settings: Staphylococcus aureus, read-out: MIC S. aureus
[3] = tested on: MRSA 63718; assay: Antibacterial screening, broth microdilution MIC; type: cell-based, methicillin-resistant S. aureus; settings: Staphylococcus aureus, read-out: MIC MRSA 63718
[4] = tested on: MRSA SA 630; assay: Antibacterial screening, broth microdilution MIC; type: cell-based, methicillin-resistant S. aureus; settings: Staphylococcus aureus, read-out: MIC MRSA SA 630
[5] = tested on: MRSA SA 3202; assay: Antibacterial screening, broth microdilution MIC; type: cell-based, methicillin-resistant S. aureus; settings: Staphylococcus aureus, read-out: MIC MRSA SA 3202
[6] = tested on: Enterococcus faecalis ATCC 29212; assay: Antibacterial screening, broth microdilution MIC; type: cell-based; settings: read-out: MIC E. faecalis
[7] = tested on: VRE 342B; assay: Antibacterial screening, broth microdilution MIC; type: cell-based, vancomycin-resistant E. faecalis; settings: Enterococcus, read-out: MIC VRE 342B
[8] = tested on: VRE 725B; assay: Antibacterial screening, broth microdilution MIC; type: cell-based, vancomycin-resistant E. faecalis; settings: Enterococcus, read-out: MIC VRE 725B
[9] = tested on: VRE 368; assay: Antibacterial screening, broth microdilution MIC; type: cell-based, vancomycin-resistant E. faecalis; settings: Enterococcus, read-out: MIC VRE 368
[10] = tested on: E. coli ATCC 25922; assay: Antibacterial screening, broth microdilution MIC; type: cell-based; settings: Escherichia coli, ATCC25922; ATCC 25922, 24 h at 37 °C
[11] = tested on: Mycobacterium tuberculosis ATCC 25177/H37Ra; assay: Antimycobacterial screening, broth dilution MIC (Alamar blue); type: cell-based; settings: 336 h, H37Ra, 14 days at 37 °C, Alamar blue, read-out: MIC M. tuberculosis
Method: The evaluation of in vitro antimycobacterial activity of the compounds was performed against Mycobacterium tuberculosis ATCC 25177/H37Ra, Mycobacterium kansasii DSM 44162 and Mycobacterium smegmatis ATCC 700084.
The broth dilution micro-method in Middlebrook 7H9 medium (Difco, Lawrence, KS, USA) supplemented with ADC Enrichment (Difco) was used to determine the minimum inhibitory concentration (MIC) as previously described. […] The final concentrations of the evaluated compounds, ranging from 256 to 0.125 μg mL^-1, were obtained by twofold serial dilution of the stock solution in a microtiter plate with a sterile medium. Bacterial inocula were prepared by transferring colonies from culture to sterile water. The plate was inoculated by tested microorganisms. The final concentration of bacterial cells was 1.5×10^6 for M. tuberculosis and 10^5 cells in a microtiter plate for other mycobacteria. Isoniazid and rifampicin (Sigma) were used as reference antimycobacterial drugs. Drug-free controls, sterility controls, and controls consisting of medium and DMSO alone were included. The plates were incubated for a defined time at an appropriate temperature (3 days at 37 °C for M. smegmatis, and 14 days at 37 °C for M. tuberculosis and M. kansasii). […] The MICs against M. tuberculosis were evaluated by Alamar blue (Oxoid). After incubation, 10 % of Alamar blue was added to each well, and the plate was incubated for 24 h. The MIC values were assessed as the lowest concentration of the tested compounds, which prevented changing blue resazurin to pink resorufin. The experiments were repeated three times. The minimum inhibitory concentrations (MICs) were defined as the lowest concentration of the compound at which no visible bacterial growth was observed. The MIC value is routinely and widely used in bacterial assays and is a standard detection limit according to the CLSI [60].

[12] = tested on: Mycobacterium kansasii DSM 44162; assay: Antimycobacterial screening, broth dilution MIC; type: cell-based; settings: DSM44162, 336 h, read-out: MIC M. kansasii
[13] = tested on: Mycobacterium smegmatis ATCC 700084; assay: Antimycobacterial screening, broth dilution MIC; type: cell-based; settings: Mycolicibacterium smegmatis, ATCC700084, 72 h, read-out: MIC M. smegmatis
[14] = ATCC29213, ATCC 29213, 24 h at 37 °C
[15] = clinical isolate, 24 h at 37 °C
[16] = ATCC29212, ATCC 29212, 24 h at 37 °C

Row | Structure (SMILES) | log D6.5 [1] | log D7.4 [1] | log k (logarithm of the capacity factor) [1] | MIC [2, 14] [µM] | MIC [4, 15] [µM] | MIC [5, 15] [µM] | MIC [6, 16] [µM] | MIC ([7]; vanA isolate, 24 h at 37 °C) [µM] | MIC ([8]; vanA isolate, 24 h at 37 °C) [µM] | MIC ([9]; vanA isolate, 24 h at 37 °C) [µM] | MIC [10] [µM] | MIC [11] [µM] | MIC [3, 15] [µM] | MIC ([12]; DSM 44162, 14 days at 37 °C) [µM] | MIC ([13]; ATCC 700084, 3 days at 37 °C) [µM] | other results
1 | COc1ccc(C)c(NC(=O)c2c(O)ccc3ccccc23)c1 [Compound 17, 2-Hydroxy-N-(5-methoxy-2-methylphenyl)naphthalene-1-carboxamide] | 0.1047 | 0.1113 | 0.0892 | 104 (≈ 32 µg/mL) | 208 (≈ 63.9 µg/mL) | 208 (≈ 63.9 µg/mL) | 833 (≈ 256 µg/mL) | 833 (≈ 256 µg/mL) | 833 (≈ 256 µg/mL) | 833 (≈ 256 µg/mL) | 833 (≈ 256 µg/mL) | 416 (≈ 128 µg/mL) | – | – | – | MIC ([3]; 24 h): 416 µM (≈ 128 µg/mL); MIC [12]: 833 µM (≈ 256 µg/mL); MIC [13]: 416 µM (≈ 128 µg/mL)
2 | Cc1cccc(C)c1NC(=O)c1c(O)ccc2ccccc12 [Compound 12, N-(2,6-Dimethylphenyl)-2-hydroxynaphthalene-1-carboxamide] | 0.0838 | 0.0923 | 0.0785 | – | – | – | 879 (≈ 256 µg/mL) | 879 (≈ 256 µg/mL) | 879 (≈ 256 µg/mL) | 879 (≈ 256 µg/mL) | 879 (≈ 256 µg/mL) | 439 (≈ 128 µg/mL) | 879 (≈ 256 µg/mL) | 879 (≈ 256 µg/mL) | 879 (≈ 256 µg/mL) | MIC ([2]; ATCC29213, 24 h): 439 µM (≈ 128 µg/mL); MIC ([4]; 24 h): 439 µM (≈ 128 µg/mL); MIC ([5]; 24 h): 439 µM (≈ 128 µg/mL)
3 | Cc1ccc(NC(=O)c2c(O)ccc3ccccc23)cc1 [Compound 10, 2-hydroxy-N-(4-methylphenyl)naphthalene-1-carboxamide] | 0.1553 | 0.1632 | 0.1658 | – | 462 (≈ 128 µg/mL) | 462 (≈ 128 µg/mL) | 462 (≈ 128 µg/mL) | 462 (≈ 128 µg/mL) | 462 (≈ 128 µg/mL) | 462 (≈ 128 µg/mL) | 462 (≈ 128 µg/mL) | 231 (≈ 64.1 µg/mL) | 462 (≈ 128 µg/mL) | 115 (≈ 31.9 µg/mL) | > 923 | –
4 | Cc1cccc(NC(=O)c2c(O)ccc3ccccc23)c1 [Compound 9, 2-hydroxy-N-(3--methylphenyl)naphthalene-1-carboxamide] | 0.1644 | 0.1727 | 0.1762 | – | – | – | 462 (≈ 128 µg/mL) | 462 (≈ 128 µg/mL) | 462 (≈ 128 µg/mL) | 462 (≈ 128 µg/mL) | 462 (≈ 128 µg/mL) | 231 (≈ 64.1 µg/mL) | 462 (≈ 128 µg/mL) | 115 (≈ 31.9 µg/mL) | – | –
5 | NNC(=O)c1ccncc1 [INH, isoniazid, reference compound] | – | – | – | – | – | – | – | – | – | – | – | 36.5 (≈ 5.01 µg/mL) | – | 233 (≈ 32 µg/mL) | 117 (≈ 16 µg/mL) | –
6 | CC1(C)S[C@@H]2[C@H](NC(=O)[C@H](N)c3ccccc3)C(=O)N2[C@H]1C(=O)O [AMP, ampicillin, reference compound] | – | – | – | 5.72 (≈ 2 µg/mL) | 45.8 (≈ 16 µg/mL) | 45.8 (≈ 16 µg/mL) | 2.81 (≈ 0.982 µg/mL) | – | – | – | 45.8 (≈ 16 µg/mL) | – | 45.8 (≈ 16 µg/mL) | – | – | –
7 | COc1cccc(NC(=O)c2c(O)ccc3ccccc23)c1 [Compound 3, 2-hydroxy-N-(3-methoxyphenyl)naphthalene-1-carboxamide] | 0.1643 | 0.1717 | 0.1751 | 436 (≈ 128 µg/mL) | 873 (≈ 256 µg/mL) | – | > 873 | > 873 | > 873 | > 873 | 873 (≈ 256 µg/mL) | 218 (≈ 63.9 µg/mL) | 436 (≈ 128 µg/mL) | 109 (≈ 32 µg/mL) | – | –
8 | CO[C@H]1/C=C/O[C@@]2(C)Oc3c(C)c(O)c4c(O)c(c(/C=N/N5CCN(C)CC5)c(O)c4c3C2=O)NC(=O)/C(C)=C\C=C\[C@H](C)[C@H](O)[C@@H](C)[C@@H](O)[C@@H](C)[C@H](OC(C)=O)[C@@H]1C [RIF, rifampicin, reference compound] | – | – | – | – | – | – | – | – | – | – | – | 9.71 (≈ 7.99 µg/mL) | – | 0.15 (≈ 0.123 µg/mL) | 19.4 (≈ 16 µg/mL) | –
9 | COc1ccccc1NC(=O)c1c(O)ccc2ccccc12 [Compound 2, 2-hydroxy-N-(2-methoxyphenyl)naphthalene-1-carboxamide] | 0.3015 | 0.3069 | 0.3181 | – | – | – | – | – | – | – | 873 (≈ 256 µg/mL) | > 873 | – | – | – | MIC ([6]; ATCC29212, 24 h): > 873 µM; MIC ([7]; 24 h): > 873 µM; MIC ([8]; 24 h): > 873 µM; MIC ([9]; 24 h): > 873 µM; MIC [12]: > 873 µM
